From patent US9606132B2, “Methods of monitoring adherence to lurasidone therapy” (Ameritox, Ltd., priority 2013, dated 2017)
Values joined by “and” are separate entries in the source; they are usually repeats but may differ in a detail not shown here. Identical values can stand only once.

How the values were obtained:
[1] = cited from earlier work
[2] = cited from earlier work; remark: listed apart in the source
[3] = Qualitative identification of lurasidone and metabolites in urine by Q-ToF MS/MS (Example 1); details: chronic lurasidone doses; for Lurasidone Metabolite Distribution in Human Urine (qualitative identification): individual subjects
Protocol: Urine samples of normally metabolizing human subjects who were known to be taking chronic doses of lurasidone were tested for the presence of lurasidone and eleven metabolites (excluding isomeric metabolites). Each patient sample was analyzed twice to ensure accuracy. Due to the high probability for false identification of isobars, MS/MS data was collected and selectively looked at to add confidence to the identification.

[4] = Quantitative urine testing of patients prescribed Latuda for compliance over 5 days (Examples 2-7)
Protocol: The urine of 20 patients who were prescribed 20 mg of Latuda® (lurasidone) was tested for compliance over 5 days (Table 3).
Samples that were deemed invalid based on pH and/or specific gravity (n=7) were not included in calculations. Any drug/metabolite concentration that was less than the LOD/LOQ (5 ng/mL) as noted in Table 3 was also excluded from the calculations.
The urine of 12 patients who were prescribed 40 mg of Latuda® (lurasidone) was tested for compliance over 5 days (Table 5).
Samples that were deemed invalid based on pH and/or specific gravity (n=3) were not included in calculations. Any drug/metabolite concentration that was less than the LOD/LOQ (5 ng/mL) as noted in Table 5 was also excluded from the calculations.
The urine of 2 patients who was prescribed 60 mg of Latuda® (lurasidone) was tested for compliance over 5 days (Table 7).
The urine of 15 patients who were prescribed 80 mg of Latuda® (lurasidone) was tested for compliance over 5 days (Table 9).
Any drug/metabolite concentration that was less than the LOD/LOQ (5 ng/mL) as noted in Table 5 was also excluded from the calculations.
The urine of 1 patient who was prescribed 100 mg of Latuda® (lurasidone) was tested for compliance over 5 days (Table 11).
The urine of 6 patients who were prescribed 120 mg of Latuda® (lurasidone) was tested for compliance over 5 days (Table 13).
Samples that were deemed invalid based on pH and/or specific gravity (n=2) were not included in calculations.

CYP3A4 = molecular target: T1, CYP3A4 (Homo sapiens, UniProt P08684); details: liver; cited from earlier work
T1 construct: host or cells: liver (in vivo metabolism, general statement)

[5] = cited from earlier work; remark: listed apart in the source
[6] = 20 mg/day, n 53 valid samples, values below LOD/LOQ excluded
[7] = 40 mg/day, n 33 valid samples, values below LOD/LOQ excluded
[8] = 80 mg/day, n 45, values below LOD/LOQ excluded

T1 sequence (P08684 whole entry): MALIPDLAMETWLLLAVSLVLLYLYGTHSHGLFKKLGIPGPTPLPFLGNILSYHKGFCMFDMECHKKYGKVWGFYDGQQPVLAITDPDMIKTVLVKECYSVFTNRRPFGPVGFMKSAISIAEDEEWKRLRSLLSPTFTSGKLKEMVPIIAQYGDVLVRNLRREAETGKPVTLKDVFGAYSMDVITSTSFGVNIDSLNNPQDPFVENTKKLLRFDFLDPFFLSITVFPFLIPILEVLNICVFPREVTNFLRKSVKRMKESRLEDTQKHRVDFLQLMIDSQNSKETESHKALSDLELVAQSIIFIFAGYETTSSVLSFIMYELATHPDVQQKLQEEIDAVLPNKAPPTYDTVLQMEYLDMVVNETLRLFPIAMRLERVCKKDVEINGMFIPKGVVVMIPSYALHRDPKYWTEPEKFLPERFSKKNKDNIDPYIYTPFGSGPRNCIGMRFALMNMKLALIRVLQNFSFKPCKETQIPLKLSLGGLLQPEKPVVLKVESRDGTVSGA

- detectability in human urine (Example 1) [3]: detected in the majority of the samples
- Lurasidone Metabolite Distribution in Human Urine (qualitative identification) ([3]; Run 1): ✓* (5×) and ✓^ (4×)
- Lurasidone Metabolite Distribution in Human Urine (qualitative identification) ([3]; Run 2): ✓^ (4×) and ✓* (5×)
- urine concentration, Maximum Value ([4]; 20 mg/day, n 53 valid samples): 149.00 ng/mL
- urine concentration, Median Value ([4]; 20 mg/day, n 53 valid samples): 12.45 ng/mL
- urine concentration, Average [4, 6]: 18.38 ng/mL
- urine concentration, Minimum Value [4, 6]: 5.70 ng/mL
- urine concentration, Maximum Value ([4]; 40 mg/day, n 33 valid samples): 192.10 ng/mL
- urine concentration, Median Value ([4]; 40 mg/day, n 33 valid samples): 33.10 ng/mL
- urine concentration, Average [4, 7]: 44.23 ng/mL
- urine concentration, Minimum Value [4, 7]: 7.20 ng/mL
- urine concentration ([4]; 60 mg/day Latuda, Day 1, individual subjects): 16.3 ng/mL
- urine concentration ([4]; 60 mg/day Latuda, Day 4, individual subjects): 25.3 ng/mL and 36.8 ng/mL
- urine concentration ([4]; 60 mg/day Latuda, Day 5, individual subjects): 50.5 ng/mL
- urine concentration, Average ([4]; 60 mg/day, n 6): 30.30 ng/mL
- urine concentration, Maximum Value ([4]; 60 mg/day, n 6): 50.50 ng/mL
- urine concentration, Median Value ([4]; 60 mg/day, n 6): 31.05 ng/mL
- urine concentration, Minimum Value ([4]; 60 mg/day, n 6): 15.60 ng/mL
- urine concentration, Maximum Value ([4]; 80 mg/day, n 45): 556.60 ng/mL
- urine concentration, Median Value ([4]; 80 mg/day, n 45): 70.00 ng/mL
- urine concentration, Average [4, 8]: 120.26 ng/mL
- urine concentration, Minimum Value [4, 8]: 10.10 ng/mL
- urine concentration, Average ([4]; 100 mg/day, n 3): 73.97 ng/mL
- urine concentration, Maximum Value ([4]; 100 mg/day, n 3): 94.90 ng/mL
- urine concentration, Median Value ([4]; 100 mg/day, n 3): 64.50 ng/mL
- urine concentration, Minimum Value ([4]; 100 mg/day, n 3): 62.50 ng/mL
- urine concentration, Average ([4]; 120 mg/day, n 16 valid samples): 95.42 ng/mL
- urine concentration, Maximum Value ([4]; 120 mg/day, n 16 valid samples): 260.10 ng/mL
- urine concentration, Median Value ([4]; 120 mg/day, n 16 valid samples): 73.60 ng/mL
- urine concentration, Minimum Value ([4]; 120 mg/day, n 16 valid samples): 12.40 ng/mL
- concentration in urine ([4]; patient prescribed 80 mg/day Latuda, subject II, day 1): 147.1 ng/mL
- concentration in urine ([4]; patient prescribed 80 mg/day Latuda, subject II, day 4): 144.8 ng/mL
- concentration in urine ([4]; patient prescribed 80 mg/day Latuda, subject II, day 5): 112.7 ng/mL
- concentration in urine ([4]; patient prescribed 80 mg/day Latuda, subject eleven, day 1): 556.6 ng/mL
- concentration in urine ([4]; patient prescribed 80 mg/day Latuda, subject eleven, day 4): 503.8 ng/mL
- concentration in urine ([4]; patient prescribed 80 mg/day Latuda, subject eleven, day 5): 264.0 ng/mL
- concentration in urine ([4]; patient prescribed 80 mg/day Latuda, subject fifteen, day 1): 138.5 ng/mL
- concentration in urine ([4]; patient prescribed 80 mg/day Latuda, subject fifteen, day 4): 83.8 ng/mL
- concentration in urine ([4]; patient prescribed 80 mg/day Latuda, subject fifteen, day 5): 67.6 ng/mL
- concentration in urine ([4]; patient prescribed 80 mg/day Latuda, subject five, day 1): 57.3 ng/mL
- concentration in urine ([4]; patient prescribed 80 mg/day Latuda, subject five, day 4): 69.6 ng/mL
- concentration in urine ([4]; patient prescribed 80 mg/day Latuda, subject five, day 5): 100.6 ng/mL
- concentration in urine ([4]; patient prescribed 80 mg/day Latuda, subject four, day 1): 175.2 ng/mL
- concentration in urine ([4]; patient prescribed 80 mg/day Latuda, subject four, day 4): 96.4 ng/mL
- concentration in urine ([4]; patient prescribed 80 mg/day Latuda, subject four, day 5): 116.3 ng/mL
- concentration in urine ([4]; patient prescribed 80 mg/day Latuda, subject nine, day 1): 52.6 ng/mL
- concentration in urine ([4]; patient prescribed 80 mg/day Latuda, subject nine, day 4): 43.7 ng/mL
- concentration in urine ([4]; patient prescribed 80 mg/day Latuda, subject nine, day 5): 38.9 ng/mL
- concentration in urine ([4]; patient prescribed 80 mg/day Latuda, subject nineteen, day 1): 210.7 ng/mL
- concentration in urine ([4]; patient prescribed 80 mg/day Latuda, subject nineteen, day 4): 70.4 ng/mL
- concentration in urine ([4]; patient prescribed 80 mg/day Latuda, subject nineteen, day 5): 16.1 ng/mL
- concentration in urine ([4]; patient prescribed 80 mg/day Latuda, subject one, day 1, values marked ** below LOD/LOQ of 5 ng/mL = negative result, * ion ratio criteria not met): 4.8** ng/mL
- concentration in urine ([4]; patient prescribed 80 mg/day Latuda, subject one, day 4): 52.0 ng/mL
- concentration in urine ([4]; patient prescribed 80 mg/day Latuda, subject one, day 5): 22.9 ng/mL
- concentration in urine ([4]; patient prescribed 80 mg/day Latuda, subject seventeen, day 1): 152.8 ng/mL
- concentration in urine ([4]; patient prescribed 80 mg/day Latuda, subject seventeen, day 4): 83.3 ng/mL
- concentration in urine ([4]; patient prescribed 80 mg/day Latuda, subject seventeen, day 5): 72.4 ng/mL
- concentration in urine ([4]; patient prescribed 80 mg/day Latuda, subject sixteen, day 1): 10.1 ng/mL
- concentration in urine ([4]; patient prescribed 80 mg/day Latuda, subject sixteen, day 4): 14.5 ng/mL
- concentration in urine ([4]; patient prescribed 80 mg/day Latuda, subject sixteen, day 5): 41.0 ng/mL
- concentration in urine ([4]; patient prescribed 80 mg/day Latuda, subject ten, day 1): 40.5 ng/mL
- concentration in urine ([4]; patient prescribed 80 mg/day Latuda, subject ten, day 4): 162.5 ng/mL
- concentration in urine ([4]; patient prescribed 80 mg/day Latuda, subject ten, day 5): 48.3 ng/mL
- concentration in urine ([4]; patient prescribed 80 mg/day Latuda, subject thirteen, day 1): 145.2 ng/mL
- concentration in urine ([4]; patient prescribed 80 mg/day Latuda, subject thirteen, day 4): 298.3 ng/mL
- concentration in urine ([4]; patient prescribed 80 mg/day Latuda, subject thirteen, day 5): 539.5 ng/mL
- concentration in urine ([4]; patient prescribed 80 mg/day Latuda, subject three, day 1): 59.5 ng/mL
- concentration in urine ([4]; patient prescribed 80 mg/day Latuda, subject three, day 4): 35.9 ng/mL
- concentration in urine ([4]; patient prescribed 80 mg/day Latuda, subject three, day 5): 69.5 ng/mL
- concentration in urine ([4]; patient prescribed 80 mg/day Latuda, subject twelve, day 1, values marked ** below LOD/LOQ of 5 ng/mL = negative result): 0.0** ng/mL
- concentration in urine ([4]; patient prescribed 80 mg/day Latuda, subject twelve, day 4): 32.9 ng/mL
- concentration in urine ([4]; patient prescribed 80 mg/day Latuda, subject twelve, day 5): 43.5 ng/mL
- concentration in urine ([4]; patient prescribed 80 mg/day Latuda, subject two, day 1): 23.0 ng/mL
- concentration in urine ([4]; patient prescribed 80 mg/day Latuda, subject two, day 4, values marked ** below LOD/LOQ of 5 ng/mL = negative result): 0.1** ng/mL
- concentration in urine ([4]; patient prescribed 80 mg/day Latuda, subject two, day 5): 36.7 ng/mL
- concentration in urine ([4]; patient prescribed 120 mg/day Latuda, subject eight, day 1): 148.7 ng/mL
- concentration in urine ([4]; patient prescribed 120 mg/day Latuda, subject eight, day 4): 260.1 ng/mL
- concentration in urine ([4]; patient prescribed 120 mg/day Latuda, subject eight, day 5, specimen validity (creatinine, specific gravity) not acceptable): 57.2 ng/mL
- concentration in urine ([4]; patient prescribed 120 mg/day Latuda, subject eighteen, day 1): 23.4 ng/mL
- concentration in urine ([4]; patient prescribed 120 mg/day Latuda, subject eighteen, day 4): 27.5 ng/mL
- concentration in urine ([4]; patient prescribed 120 mg/day Latuda, subject eighteen, day 5): 12.4 ng/mL
- concentration in urine ([4]; patient prescribed 120 mg/day Latuda, subject fourteen, day 1): 102.7 ng/mL
- concentration in urine ([4]; patient prescribed 120 mg/day Latuda, subject fourteen, day 4): 87.3 ng/mL
- concentration in urine ([4]; patient prescribed 120 mg/day Latuda, subject fourteen, day 5): 59.1 ng/mL
- concentration in urine ([4]; patient prescribed 120 mg/day Latuda, subject seven, day 1): 83.9 ng/mL
- concentration in urine ([4]; patient prescribed 120 mg/day Latuda, subject seven, day 4): 46.4 ng/mL
- concentration in urine ([4]; patient prescribed 120 mg/day Latuda, subject seven, day 5): 63.3 ng/mL
- concentration in urine ([4]; patient prescribed 120 mg/day Latuda, subject six, day 1, specimen validity (creatinine) not acceptable): 21.7 ng/mL
- concentration in urine ([4]; patient prescribed 120 mg/day Latuda, subject six, day 4, specimen validity (specific gravity) not acceptable): 23.7 ng/mL
- concentration in urine ([4]; patient prescribed 120 mg/day Latuda, subject six, day 5): 61.6 ng/mL
- concentration in urine ([4]; patient prescribed 120 mg/day Latuda, subject twenty, day 1): 126.2 ng/mL
- concentration in urine ([4]; patient prescribed 120 mg/day Latuda, subject twenty, day 4): 150.7 ng/mL
- concentration in urine ([4]; patient prescribed 120 mg/day Latuda, subject twenty, day 5): 251.7 ng/mL
Substance: Lurasidone
- log P [1]: 5.9
- pKa [1]: 7.6
- time to steady state serum concentrations ([2]; days of dosing): 7 days
- mean elimination half-life ([2]; in vivo): 18 h
- urine concentration ([4]; 20 mg/day Latuda, Day 1, individual subjects, ** = below LOD/LOQ 5 ng/mL (negative)): 9.7 ng/mL and 12.7 ng/mL and 9.0 ng/mL and 33.1 ng/mL and 24.6 ng/mL and 6.9 ng/mL and 6.0 ng/mL and 4.4* ** ng/mL and 9.1 ng/mL (2×) and 10.1 ng/mL and 5.7 ng/mL and 7.8 ng/mL and 12.9 ng/mL and 25.8 ng/mL and 13.8 ng/mL and 3.2** ng/mL and 83.1 ng/mL and 33.4 ng/mL and 12.0 ng/mL
- urine concentration ([4]; 20 mg/day Latuda, Day 4, individual subjects, ** = below LOD/LOQ 5 ng/mL (negative)): 149.0 ng/mL and 14.3 ng/mL and 18.9 ng/mL and 4.8** ng/mL and 14.0 ng/mL and 5.7 ng/mL and 4.7* ** ng/mL and 7.0 ng/mL (2×) and 2.9* ** ng/mL and 31.3 ng/mL and 13.0 ng/mL and 7.3 ng/mL and 24.3 ng/mL and 4.3** ng/mL and 12.5 ng/mL and 17.5 ng/mL and 5.8 ng/mL and 29.1 ng/mL and 8.0 ng/mL
- urine concentration ([4]; 20 mg/day Latuda, Day 5, individual subjects, ** = below LOD/LOQ 5 ng/mL (negative)): 9.6 ng/mL and 8.8 ng/mL and 13.2 ng/mL and 24.4 ng/mL and 26.2 ng/mL and 20.3 ng/mL and 6.5 ng/mL and 6.6 ng/mL and 6.0 ng/mL and 18.6 ng/mL and 12.1 ng/mL and 13.6 ng/mL and 5.4 ng/mL and 10.2 ng/mL and 11.0 ng/mL and 12.4 ng/mL and 5.2 ng/mL and 4.7** ng/mL and 23.2 ng/mL and 10.4 ng/mL
- urine concentration ([4]; 40 mg/day Latuda, Day 1, individual subjects, ** = below LOD/LOQ 5 ng/mL (negative)): 30.5 ng/mL and 31.9 ng/mL and 63.9 ng/mL and 25.8 ng/mL and 4.4** ng/mL and 30.6 ng/mL and 9.8 ng/mL and 112.1 ng/mL and 14.0 ng/mL and 11.8 ng/mL and 129.1 ng/mL and 77.1 ng/mL
- urine concentration ([4]; 40 mg/day Latuda, Day 4, individual subjects, ** = below LOD/LOQ 5 ng/mL (negative)): 21.7 ng/mL and 25.6 ng/mL and 70.7 ng/mL and 69.3 ng/mL and 26.4 ng/mL and 1.0** ng/mL and 41.3 ng/mL and 14.5 ng/mL and 54.0 ng/mL and 32.8 ng/mL and 12.8 ng/mL and 38.0 ng/mL
- urine concentration ([4]; 40 mg/day Latuda, Day 5, individual subjects, ** = below LOD/LOQ 5 ng/mL (negative)): 37.9 ng/mL (2×) and 60.0 ng/mL and 33.4 ng/mL and 40.1 ng/mL and 1.3** ng/mL and 35.8 ng/mL and 7.2 ng/mL and 192.1 ng/mL and 11.3 ng/mL and 7.8 ng/mL and 56.4 ng/mL
- metabolizing enzyme (CYP3A4): metabolized in the liver primarily by CYP3A4
- excreted in the feces ([5]; excretion studies in humans): 80%
- recovered in the urine ([5]; excretion studies in humans): 9%
- share of total radioactivity in plasma ([5]; plasma, post oral dosing): 12%
